Measurements taken from patent publication US20090005435A1, “Novel Compounds, Pharmaceutical Compositions Containing Same, and Methods of Use for Same” (priority 2004, published 2009).
≈ marks a conversion by molar mass, not a printed value.

Experiments:
Format in all cases: cell-based
[1] = tested on: Enterococcus faecalis (ATCC #29212); assay: Broth microdilution MIC, E. faecalis
Experimental: (§1) A broth microdilution assay is used to assess the antimicrobial activity of the compounds. Compounds are tested at twofold serial dilutions, and the concentration that inhibits visible growth (OD600 at 10% of control) is defined as the MIC. Microorganisms tested include Staphylococcus aureus (ATCC #29213), Enterococcus faecalis (ATCC #29212), Pseudomonas aeruginosa (ATCC #27853), and Escherichia coli (ATCC #25922). The assay is performed in two growth media, Mueller Hinton Broth and Trypticase Soy Broth.
(§2) A blood (Tsoy/5% sheep blood) agar plate is inoculated from frozen stocks maintained in T soy broth containing 10% glycerol and incubated overnight at 37° C. Colonies are suspended in sterile broth so that the turbidity matches the turbidity of a 0.5 McFarland standard. The inoculum is diluted 1:10 in sterile broth (Mueller Hinton or Trypticase soy) and 195 ul is dispensed per well of a 96-well plate. […]
(§3) After 24 hours of incubation at 37° C., plates are read at OD600 on a Molecular Devices SpectraMax Plus Spectrophotometer. Average OD600 values are computed using SOFTmax Pro Software (Molecular Devices) and MIC values are determined by linear regression analysis using Prism version 3.02 (Graph Pad Software, San Diego). […]

[2] = tested on: Pseudomonas aeruginosa (ATCC #27853); assay: Broth microdilution MIC, P. aeruginosa
Experimental: as §1, §2, §3

[3] = tested on: Escherichia coli (ATCC #25922); assay: Broth microdilution MIC, E. coli
Experimental: as §1, §2, §3

[4] = tested on: Staphylococcus aureus (ATCC #29213); assay: Broth microdilution MIC, S. aureus
Experimental: as §1, §2, §3

[5] = tested on: MCF-7 human breast cancer cells; assay: Crystal violet cell growth assay; details: MCF7, MCF-7 cells, read-out: Cr. Violet (IC50)
Experimental: Crystal Violet Cell Growth Assay
The crystal violet assay measure cell growth but not cytotoxicity. This assay employs crystal violet staining of fixed cells in 96-well plates with subsequent solubilization and measurement of OD490 on a spectrophotometer. The OD490 corresponds to cell growth per unit time measured. Cells are treated with the compounds of interest or vehicle controls and IC50 for each compound is computed.
To measure the cytotoxicity of specific compounds against cancer cells, 5×10^4 MCF-7 human breast cancer cells, obtained from the American Type Culture Collection are plated per well in 24 well plates in DMEM medium with 10% fetal bovine serum, penicillin, and streptomycin. Following overnight culture at 37° C. and 5% CO2, the compounds to be tested, dissolved in DMSO, are added to the wells in 1 μl volume at the following concentrations: 50, 40, 30, 20, and 10 μg/ml in triplicate. […]
After 72 hours of incubation, cells are stained with 0.5 ml of Crystal Violet stain (0.5% in 25% methanol) in each well. […] Following transfer of 100 μl from each well to a 96-well plate, plates are read at OD490 on a Molecular Devices SpectraMax Plus Spectrophotometer Average OD490 values are computed using SOFTmax Pro Software (Molecular Devices) and IC50 values are determined by linear regression analysis using Prism version 3.02 (Graph Pad Software, San Diego).

C=CCC1(CC=C)C(=O)SC(C)(CCCCCCCC)C1=O (racemic) [Compound 4, 3,3-Diallyl-5-methyl-5-octyl-thiophene-2,4-dione]
MIC ([1]; Enterococcus faecalis, ATCC29212, Trypticase Soy Broth, read-out: EF/Tsoy (MIC)): 169 µg/mL (≈ 524 µM) | EF/MH (MIC) ([1]; Mueller Hinton Broth): Neg | PSAE/MH (MIC) ([2]; Mueller Hinton Broth): Neg | PSAE/Tsoy ([2]; Trypticase Soy Broth): Neg | Ecoli/MH (MIC) ([3]; Mueller Hinton Broth): Neg | Ecoli/Tsoy ([3]; Trypticase Soy Broth): Neg | SA/MH (MIC) ([4]; Mueller Hinton Broth): Neg | MIC ([4]; Staphylococcus aureus, ATCC29213, Trypticase Soy Broth, read-out: SA/Tsoy (MIC)): 98 µg/mL (≈ 304 µM) | IC50 [5]: 15 ± 7.7 µg/mL (≈ 46.5 µM)
